Literature values in patent US20030135108A1, “High throughput screening methods using magnetic resonance imaging agents” (priority 2001, published 2003).

Settings: thermodynamic stability of the Gd(III) chelate complex

Row | SMILES | stability constant (K), formation constant, logK
1 | O=C([O-])CN(CCN(CC(=O)[O-])CC(=O)[O-])CCN(CC(=O)[O-])CC(=O)[O-].[Gd+3] [Gd(DTPA)^2−] | 22.4
2 | O=C([O-])CN1CCN(CC(=O)[O-])CCN(CC(=O)O)CCN(CC(=O)[O-])CC1.[Gd+3] [Gd-DOTA] | 28.5
